Test system: calcium channel (e.g., L-type, N-type, etc.) currents
Assay: HEK assay, whole-cell voltage clamp in transiently transfected HEK-293T/17 cells
Type: cell-based
Conditions: whole-cell patch clamp, steady-state concentration-response
Procedure: HEK-293T/17 cells are transiently transfected in a similar manner as described in FuGENE 6 Package Insert Version 7, April 2002, Roche Applied Science, Indianapolis, Ind. The cells are plated at 2.5×10^5 cells in 2 mL in a 6-well plate in incubator for one night and achieve a 30˜40% confluence. In a small sterile tube, add sufficient serum-free medium as diluent for FuGENE Transfection Reagent (Roche Applied Science, Indianapolis, Ind.), to a total volume of 100 μL. Add 3 μL of FuGENE 6 Reagent directly into this medium. The mixture is tapped gently to mix. 2 μg of DNA solution (0.8-2.0 μg/μL) is added to the prediluted FuGENE 6 Reagent from above. The DNA/Fugene 6 mixture is gently pipeted to mix the contents and incubated for about 15 minutes at room temperature. The complex mixture is then added to the HEK-293T/17 cells, distributing it around the well, and swirled to ensure even dispersal. The cells are returned to the incubator for 24 hrs. The transfected cells are then replated at density 2.5×10^5 in a 35 mm dish with 5 glass coverslips and grow in low serum(1%) media for 24 hrs. Coverslips with isolated cells are then transferred into chamber and calcium channel (e.g., L-type, N-type, etc.) current or other currents for counter screening are recorded from the transiently transfected HBEK-293T/17 cells. […]

IC50: 252 nM
SMILES: Fc1ccc(Cc2nc(Cc3nc4ccccc4[nH]3)cn2-c2ccc(Cl)cc2)cc1 [Compound 2, 2-[1-(4-Chloro-phenyl)-2-(4-fluoro-benzyl)-1H-imidazol-4-ylmethyl]-1H-benzoimidazole]

Source: patent publication US20080242716A1, “Ion Channel Modulators” (priority 2004, published 2008)
